In assay [1] the test system is A549 (lung carcinoma). As to the kind of experiment: Antiproliferative SRB assay, A549. It is filed as cell-based. The settings on record: Homo sapiens, A549, SRB assay, 72 h, read-out: IC50 A549. The procedure: (§1) We tested the fourteen known aspidosperma-type alkaloids (1–14) against chemosensitive KB (originally isolated from epidermoid carcinoma of the nasopharynx) and P-gp over-expressing multidrug-resistant (MDR) KB subline KB-VIN, as well as three additional human cancer cell lines, A549 (lung carcinoma), MDA-MB-231 (triple negative breast cancer), and MCF-7 (estrogen receptor-positive breast cancer), using a sulforhodamine B (SRB) assay (Table 1).
(§2) Antiproliferative activity was determined by the sulforhodamine B (SRB) colorimetric assay as previously described. In brief, human tumor cell lines were cultured in RPMI-1640 medium containing 2 mM l-glutamine and 25 mM HEPES (Gibco), supplemented with 10% fetal bovine serum (Speciality Media), 100 µg/mL streptomycin, 100 IU/mL penicillin, and 0.25 µg/mL amphotericin B (Corning). MDR stock cells (KB-VIN) were maintained in the presence of 100 nM vincristine (VIN) (Sigma-Aldrich, Saint Louis, MI, USA).
(§3) Freshly trypsinized cell suspensions were seeded in 96-well microtiter plates at densities of 4000–11,000 cells per well (based on the cell lines) with compounds. After 72 h in culture with test compounds, cells were fixed in 10% trichloroacetic acid followed by staining with 0.04% sulforhodamine B (Sigma-Aldrich). The bound SRB was solubilized in 10 mM Tris-base and the absorbance at 515 nm was measured using a Microplate Reader (ELx800, Bio-Tek Instruments, Winooski, VT, USA) operated by Gen5 software (BioTek) after solubilizing the protein-bound dye with 10 mM Tris base. The mean IC50 is the concentration of agent that reduced cell growth by 50% compared with vehicle (DMSO) control under the experimental conditions and is the average from at least three independent experiments with duplicate samples.
(§4) The following human tumor cell lines were used in the assay: A549 (lung carcinoma), MDA-MB-231 (triplen-egative breast cancer), KB (originally isolated from epidermoid carcinoma of the nasopharynx), KB-VIN (VIN-resistant KB subline showing MDR phenotype by overexpressing P-gp), MCF-7 (estrogen receptor (ER)-positive, HER2-negative breast cancer). […] All cell lines were obtained from the Lineberger Comprehensive Cancer Center (UNC-CH) or from ATCC (Manassas, VA), except KB-VIN, which was a generous gift from Professor Y.-C. Cheng (Yale University). Paclitaxel was purchased from Sigma-Aldrich.
(In general: Sulforhodamine B stains cellular protein and so reports cell mass.)

Assay [2] concerns MDA-MB-231 (triple negative breast cancer). As to the kind of experiment: Antiproliferative SRB assay, MDA-MB-231. In kind it is cell-based. The settings on record: Homo sapiens, MDA-MB-231, SRB assay, 72 h, read-out: IC50 MDA-MB-231. The procedure: as §1, §2, §3, §4
Assay [3] deals with KB (originally isolated from epidermoid carcinoma of the nasopharynx). Put plainly: Antiproliferative SRB assay, KB. It is filed as cell-based. The settings on record: Homo sapiens, SRB assay, 72 h, read-out: IC50 KB. The procedure:
as §1, §2, §3, §4

The subject of assay [4] is KB-VIN (VIN-resistant KB subline showing MDR phenotype by overexpressing P-gp). As to the kind of experiment: Antiproliferative SRB assay, KB-VIN. The following applies: Homo sapiens, KBVIN, 72 h, read-out: IC50 KB-VIN. The procedure: as §1, §2, §3, §4
Assay [5] deals with MCF-7 (estrogen receptor-positive breast cancer). Put plainly: Antiproliferative SRB assay, MCF-7. It is filed as cell-based. The following applies: Homo sapiens, MCF7, SRB assay, 72 h, read-out: IC50 MCF-7. The procedure: as §1, §2, §3, §4
Assay [6] deals with T1, tubulin (colchicine site) (Bos taurus, UniProt P81947+Q6B856).
T1 construct: electrophoretically homogeneous bovine brain tubulin; from tissue; host or cells: bovine brain
T1 sequence (P81947 whole entry): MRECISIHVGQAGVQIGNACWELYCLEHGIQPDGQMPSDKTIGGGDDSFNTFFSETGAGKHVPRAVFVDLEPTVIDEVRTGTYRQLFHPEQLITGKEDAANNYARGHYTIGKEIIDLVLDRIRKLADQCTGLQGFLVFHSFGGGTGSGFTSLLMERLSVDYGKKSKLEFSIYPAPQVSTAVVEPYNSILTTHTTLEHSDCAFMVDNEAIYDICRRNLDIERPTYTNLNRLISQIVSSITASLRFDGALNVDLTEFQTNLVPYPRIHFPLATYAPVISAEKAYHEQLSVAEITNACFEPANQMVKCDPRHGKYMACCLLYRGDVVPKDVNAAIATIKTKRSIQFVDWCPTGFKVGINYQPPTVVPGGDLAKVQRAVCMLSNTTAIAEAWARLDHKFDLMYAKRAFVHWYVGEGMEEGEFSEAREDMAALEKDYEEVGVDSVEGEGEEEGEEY
T1 sequence (Q6B856 whole entry): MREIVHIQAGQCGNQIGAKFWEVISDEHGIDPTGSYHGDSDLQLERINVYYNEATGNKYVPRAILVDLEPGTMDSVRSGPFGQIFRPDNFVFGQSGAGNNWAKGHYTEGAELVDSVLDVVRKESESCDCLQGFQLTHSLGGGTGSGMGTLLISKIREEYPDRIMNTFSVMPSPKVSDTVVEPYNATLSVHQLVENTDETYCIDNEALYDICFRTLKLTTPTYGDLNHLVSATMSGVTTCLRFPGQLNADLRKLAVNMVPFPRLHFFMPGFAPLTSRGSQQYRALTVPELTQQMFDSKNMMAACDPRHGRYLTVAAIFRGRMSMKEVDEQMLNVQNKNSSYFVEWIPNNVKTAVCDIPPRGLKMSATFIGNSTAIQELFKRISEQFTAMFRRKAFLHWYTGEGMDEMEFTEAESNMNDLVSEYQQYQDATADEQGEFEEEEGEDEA
As to the kind of experiment: Inhibition of [3H]colchicine binding to tubulin. Also on record: species or system bovine. The following applies: 5 μM [3H]colchicine, 1 μM tubulin, 5 μM test compound, 37 °C, 10 min, NA = not active; for inhibition at 5 µM: read-out: Tubulin Assay ICB: percent inhibition of [3H]colchicine binding. The procedure: The data for 6 and 7 indicate that both alkaloids bind to tubulin and inhibit its assembly, and these effects are closely related to their antiproliferative activities against tumor cells. Thus, we further investigated whether the inhibition of tubulin polymerization was the major action of these alkaloids.
(§5) Inhibitory effects of compounds on tubulin assembly were evaluated using electrophoretically homogeneous bovine brain tubulin as described previously using 1.0 mg/mL (10 μM) tubulin. The turbidity development as tubulin assembly was initiated by adding 0.4 mM GTP and followed for 20 min at 30 °C following a rapid temperature jump. Compound concentrations as EC50 values that inhibited the increase in turbidity by 50% relative to a control sample were determined. In colchicine inhibition assays, tubulin (1.0 μM) was incubated with 5.0 μM [^3H] colchicine and 5.0 μM test compound at 37 °C for 10 min, when about 40–60% of maximum colchicine binding occurs in control samples.

Assay [7] relates to KB-VIN cells. Put plainly: Cell cycle analysis by flow cytometry (PI staining). The following applies: 24 h, 1 × IC50 or 3 × IC50. It is filed as cell-based, human. The procedure: KB-VIN cells were treated with compounds 3, 4, 6, 7, and 13 at their IC50 (1 × IC50) or three-fold IC50 (3 × IC50) concentration, and the cell cycle progression was analyzed by flow cytometer (Figure 2A).
(§6) Figure 2 Mitotic defects in KB-VIN cells treated by compounds. […] Cell cycle distributions (sub-G1, G1, S, G2/M) were analyzed using flow cytometry after staining cells with propidium iodide (PI). […] Fixed cells were stained with antibodies to α-tubulin (green) and phospho-histone H3 (pH3, red), and DAPI was used for DNA (blue). Stained cells were observed by confocal fluorescence microscope. The represented image is a projection of 15~20 optical sections acquired at 0.5~1 µm intervals. […] Bar, 0.025 mm. Additional images are available in Supplementary Figure S1.
KB-VIN cells were seeded in 12-well plates at a density of 1 × 10^5 per well and incubated overnight. […] The DNA contents of stained cells were analyzed by flow cytometer (LSRFortessa, BD Biosciences) controlled by FACSDiva software (BD Biosciences). Paclitaxel (PXL) was used at 3 or 6 µM. […] Experiments were repeated a minimum of two times.
In general terms: Flow cytometry measures light scatter and fluorescence of single cells or particles in a stream.

The test system of assay [8] is KB-VIN cells. Put plainly: Immunofluorescence staining of α-tubulin, pH3 and DNA. In kind it is cell-based, human. The following applies: 24 h, 3 × IC50. The procedure: as §6
To determine whether the cell cycle arrest was due to an antimicrotubule effect, cells treated with compounds were analyzed by immunocytochemistry using antibodies to α-tubulin for microtubules and mitotic spindles, Ser10-phosphorylated histone H3 (pH3) for the condensed chromatins and 4′,6-diamidino-2-phenylindole (DAPI) for DNA. […] Thus, we concluded that these alkaloids are tubulin polymerization inhibitors.
Immunocytochemical analysis was performed as previously described. […] After treatment of cells with the agent for 24 h, cells were fixed with 4% paraformaldehyde in PBS and permeabilized with 0.5% Triton X-100 in PBS. Fixed cells were labeled with mouse monoclonal antibody to α-tubulin (B5-1-2, Sigma) and rabbit IgG to Ser10-phosphorylated histone H3 (p-H3) (#06570, EMD Millipore), followed by FITC-conjugated antibody to mouse IgG (Sigma) and Alexa Fluor 549-conjugated antibody to rabbit IgG (Life Technologies). Nuclei were labeled with DAPI (Sigma). Fluorescently-labeled cells were observed using a confocal microscope (Zeiss, LSM700) with ZEN (black edition) software (Zeiss). The 15~20 optical sections acquired at 0.5~1 µm intervals were stacked and reconstructed using ZEN (black edition) software. Experiments were repeated at least twice for each compound. Final images were prepared using Adobe Photoshop CS3.

Assay [9] deals with A549, MDA-MB-231, KB, KB-VIN, and MCF-7. As to the kind of experiment: Antiproliferative SRB assay, values stated across several cell lines. In kind it is cell-based, human. The settings on record: for antiproliferative activity (in words): five human tumor cell lines including MDR subline KB-VIN. The procedure: as §1, §2, §3, §4
Assay [10] has as its target T2, bovine brain tubulin (Bos taurus, UniProt P81947+Q6B856).
T2 construct: electrophoretically homogeneous bovine brain tubulin; from tissue; host or cells: bovine brain
As to the kind of experiment: Inhibition of purified tubulin assembly (turbidity). It is filed as biochemical. The following applies: 10 μM tubulin, 0.4 mM GTP, 20 min at 30 °C; NA = not active (IC50 > 40 µM); read-out: Tubulin Assay ITA: inhibition of purified tubulin assembly, EC50. The procedure:
as §5

[11] abbreviates: five human tumor cell lines, read-out: IC50 range over the cell lines tested.
The mark [12] stands for this setting: Homo sapiens, A549, KB, KB-VIN, range stated for the group of compounds, read-out: IC50 values ranging over A549, KB and KB-VIN cells.

Entries after “also recorded” stand apart in the source; their conditions may differ. Where two headings read alike, the source gives them in different places.

A word on the IC50: it is the concentration that inhibits the measured activity by half. What is called inhibition is the share of the control response that was lost under treatment. What is called EC50 is the concentration needed to bring the measured effect to its halfway point.

T2 sequence (P81947 whole entry): as the sequence (P81947 whole entry) above
T2 sequence (Q6B856 whole entry): as the sequence (Q6B856 whole entry) above

Consider `COc1ccc(/C=C\c2cc(OC)c(OC)c(OC)c2)cc1O` [CA-4, combretastatin A-4, reference compound], for which the half-inhibitory concentration (IC50) in [1] (positive controls, unit nM) came out at 5.5 ± 0.1 nM; in [2] (positive controls, unit nM), 8.2 ± 0.5 nM; in assay [3] (positive controls, unit nM), 3.6 ± 0.1 nM; in [4] it was 3.8 ± 0.1 nM; in assay [5] (positive controls, unit nM), 487 ± 11 nM. In assay [6], the “Tubulin Assay ICB: percent inhibition of [3H]colchicine binding” value is “totally inhibited”. Besides, the inhibition at 5 µM in [6] amounted to 100 ± 0.4%.
Take `CC[C@@]12CC(C(=O)OC)=C3Nc4ccccc4[C@@]34CCN([C@H](CC(C)=O)[C@@H]3O[C@@H]31)[C@@H]24` [Compound 4, melodinine S]: the IC50 in [1] was 5600 nM; in assay [2], 8200 ± 800 nM; in assay [3], 5800 ± 300 nM; in assay [4], 6300 ± 200 nM; in assay [5], 10000 ± 900 nM; in assay [9] (setting [11]), 5600 to 10000 nM. Further, the “effect on cell cycle progression” value in assay [7] is “accumulation of cells in the G2/M phase; also recorded: cell cycle arrest at G2/M”. In addition, the “microtubule / mitotic spindle morphology” value in assay [8] is recorded as “dotted tubulin aggregations without spindles”. In addition, the “antiproliferative activity (in words)” value in assay [9] was “exhibited antiproliferative activity against all cell lines; also recorded: significant antiproliferative effects against all five tumor cell lines”.
Regarding `CC[C@@]12CC(C(=O)OC)=C3Nc4ccccc4[C@@]34CCN(C[C@@H]3O[C@@H]31)[C@@H]24` [Compound 5, lochnericine], the IC50 in assay [1], in [2], in assay [3], in [4] and in assay [5] was over 40000 nM each time. Further, the EC50 in assay [10] was over 40000 nM. The inhibition at 5 µM in [6] worked out at 0%. In assay [9], the “antiproliferative activity (in words)” value was “essentially inactive”.
Consider `CC[C@@]12CC(C(=O)OC)=C3Nc4cc(OC)ccc4[C@@]34CCN(C[C@@H]3O[C@@H]31)[C@@H]24` [Compound 6, 14,15-α-epoxy-11-methoxytabersonine], for which the IC50 in assay [1] is 500 nM; in assay [2] it was 800 nM; in assay [3] it was 500 nM; in assay [4], 500 nM; in assay [5], 800 nM; in assay [9] (setting [12]), 500 to 900 nM. For the same molecule, the EC50 in assay [10] amounted to 700 nM. Also, the inhibition at 5 µM in assay [6] was found to be 54 ± 0.8%. The “effect on cell cycle progression” value in assay [7] was “accumulation of cells in the G2/M phase; also recorded: cell cycle arrest at G2/M”. Also, the “microtubule / mitotic spindle morphology” value in [8] was “dotted tubulin aggregations without spindles”. The “fold rise in potency by a methoxy group at C-11” value in assay [9] (6 compared with 5, 9 compared with 8) is reported as ~ 60 fold. Further, the “antiproliferative activity (in words)” value in assay [9] is “exhibited antiproliferative activity against all cell lines; also recorded: significant antiproliferative effects against all five tumor cell lines”.
As for `CC[C@@]12CC(C(=O)OC)=C3Nc4cc(O)ccc4[C@@]34CCN(C[C@@H]3O[C@@H]31)[C@@H]24` [Compound 7, 11-hydroxylochnericine], the half-maximal inhibitory concentration (IC50) in assay [1] stood at 5600 ± 100 nM; in [2], 9800 ± 900 nM; in assay [3] it was 5400 ± 300 nM; in assay [4], 6100 ± 400 nM; in assay [5], 10800 ± 800 nM. Besides, in assay [10], the EC50 amounted to 4600 ± 100 nM. In addition, the inhibition at 5 µM in [6] stood at 35 ± 1%. In addition, in assay [7], the “effect on cell cycle progression” value was “accumulation of cells in the G2/M phase; also recorded: cell cycle arrest at G2/M”. Also, the “microtubule / mitotic spindle morphology” value in assay [8] was “dotted tubulin aggregations without spindles”. Besides, the “antiproliferative activity (in words)” value in [9] was “exhibited antiproliferative activity against all cell lines; also recorded: significant antiproliferative effects against all five tumor cell lines”.
`COC(=O)C1=C2Nc3cc(O)ccc3C23CCN2CC=CC(C(C)OC(C)=O)(C1)C23` [Compound 13, 19-(R)-acetoxy-11-hydroxytabersonine]: the half-inhibitory concentration (IC50) in assay [1] was 700 ± 100 nM; in [2], 900 nM; in [3], 700 nM; in [4], 700 nM; in assay [5], 6700 ± 100 nM; in [9] (setting [12]), 500 to 900 nM. The IC50 in assay [9] (setting [11]) lay within 600 to 6700 nM. Also, the “effect on cell cycle progression” value in [7] is “accumulation of cells in the G2/M phase; also recorded: cell cycle arrest at G2/M”. Also, the “microtubule / mitotic spindle morphology” value in assay [8] was “dotted tubulin aggregations without spindles”. For the same molecule, the “antiproliferative activity (in words)” value in [9] is given as “exhibited antiproliferative activity against all cell lines; also recorded: significant antiproliferative effects against all five tumor cell lines”.

Values taken from paper PMC6480704, “Antiproliferative Aspidosperma-Type Monoterpenoid Indole Alkaloids from Bousigonia mekongensis Inhibit Tubulin Polymerization” (Molecules, 2019).
